The values below come from ChEMBL document CHEMBL3085697, “Design and synthesis of aryl sulfonamide-based nonsteroidal mineralocorticoid receptor antagonists” (Bioorg Med Chem Lett, 2013).

Some results are limits rather than exact numbers.

A short description of data set [1]: Apparent intrinsic clearance in human liver microsomes. The format is ADME. The note with it: read-out: CLH(app). In general terms: Microsomes from liver hold many membrane-bound enzymes, among them those of drug oxidation.
Data set [2] in a line: Lipophilicity, log D of the compound. The format is physicochemical. The settings on record: octanol/water.
A short description of data set [3]: Apparent permeability across dog RRCK cells. The format is ADME, cell-based, Canis lupus familiaris, MDCKII-LE. The note with it: MDCK.
A further data set concerns Hepatocyte. Nature of the data set: Apparent intrinsic clearance in human hepatocytes assessed per million cells. In kind it is ADME, cell-based.
Data set [4] deals with T1, Mineralocorticoid receptor (Homo sapiens, UniProt P08235).
T1 sequence (P08235 whole entry): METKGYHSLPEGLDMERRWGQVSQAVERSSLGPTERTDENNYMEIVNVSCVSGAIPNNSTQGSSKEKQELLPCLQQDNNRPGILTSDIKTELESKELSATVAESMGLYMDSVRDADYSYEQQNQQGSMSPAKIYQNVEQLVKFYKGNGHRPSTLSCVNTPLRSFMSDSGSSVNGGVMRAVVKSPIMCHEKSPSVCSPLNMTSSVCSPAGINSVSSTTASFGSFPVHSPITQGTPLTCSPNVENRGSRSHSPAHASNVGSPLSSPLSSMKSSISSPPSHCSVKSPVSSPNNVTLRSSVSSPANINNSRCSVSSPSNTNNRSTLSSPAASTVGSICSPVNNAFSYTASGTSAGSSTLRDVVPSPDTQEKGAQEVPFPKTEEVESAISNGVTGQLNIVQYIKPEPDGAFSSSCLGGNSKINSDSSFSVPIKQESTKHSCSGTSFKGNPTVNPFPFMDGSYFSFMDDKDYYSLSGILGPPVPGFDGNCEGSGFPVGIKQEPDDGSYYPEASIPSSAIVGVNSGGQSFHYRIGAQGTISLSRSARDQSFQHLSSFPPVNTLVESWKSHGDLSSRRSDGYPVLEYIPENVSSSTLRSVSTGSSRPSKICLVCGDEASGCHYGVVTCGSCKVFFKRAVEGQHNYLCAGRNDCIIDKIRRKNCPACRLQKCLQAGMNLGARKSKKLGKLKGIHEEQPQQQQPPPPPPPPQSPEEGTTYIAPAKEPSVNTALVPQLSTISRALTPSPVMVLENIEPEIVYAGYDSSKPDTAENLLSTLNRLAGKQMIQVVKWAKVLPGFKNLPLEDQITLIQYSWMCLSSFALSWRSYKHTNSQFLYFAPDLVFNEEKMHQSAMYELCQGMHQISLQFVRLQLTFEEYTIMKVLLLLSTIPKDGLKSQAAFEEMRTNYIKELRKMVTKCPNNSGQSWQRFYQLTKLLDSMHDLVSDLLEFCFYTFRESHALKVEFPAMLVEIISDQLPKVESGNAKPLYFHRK
Nature of the data set: Antagonist activity at human mineralocorticoid receptor ligand binding domain expressed in human Huh7 cells after 16 hrs by luciferase reporter gene assay in absence of serum. The format is cell-based, Huh-7.

Another data set addresses CYP2D6 (Homo sapiens, UniProt P10635). Nature of the data set: Inhibition of CYP2D6 (unknown origin) at 3 uM. The format is ADME.
A further data set addresses T2, Glucocorticoid receptor (Homo sapiens, UniProt P04150).
T2 sequence (P04150 whole entry): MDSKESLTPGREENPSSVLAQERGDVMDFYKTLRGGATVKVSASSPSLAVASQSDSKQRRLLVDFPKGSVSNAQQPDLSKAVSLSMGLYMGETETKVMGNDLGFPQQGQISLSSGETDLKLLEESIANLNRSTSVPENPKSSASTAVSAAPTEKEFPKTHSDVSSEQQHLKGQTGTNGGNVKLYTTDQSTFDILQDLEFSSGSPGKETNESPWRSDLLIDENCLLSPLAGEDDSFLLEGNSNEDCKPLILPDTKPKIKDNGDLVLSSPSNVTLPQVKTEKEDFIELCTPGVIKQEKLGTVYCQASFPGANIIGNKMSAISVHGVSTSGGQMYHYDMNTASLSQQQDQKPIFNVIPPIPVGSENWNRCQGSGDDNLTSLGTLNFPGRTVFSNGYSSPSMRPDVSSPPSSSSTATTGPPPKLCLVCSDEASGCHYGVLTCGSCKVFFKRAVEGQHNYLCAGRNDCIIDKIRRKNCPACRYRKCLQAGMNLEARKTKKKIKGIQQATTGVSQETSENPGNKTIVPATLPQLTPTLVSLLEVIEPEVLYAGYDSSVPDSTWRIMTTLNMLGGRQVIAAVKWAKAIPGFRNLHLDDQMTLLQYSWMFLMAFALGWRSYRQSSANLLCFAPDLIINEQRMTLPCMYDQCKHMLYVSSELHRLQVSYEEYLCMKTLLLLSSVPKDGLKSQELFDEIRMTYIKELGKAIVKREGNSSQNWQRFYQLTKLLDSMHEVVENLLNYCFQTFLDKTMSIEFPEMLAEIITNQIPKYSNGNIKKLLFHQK
Nature of the data set: Displacement of [3H]dexamethasone from GST-tagged human glucocorticoid receptor ligand binding domain after 4 hrs by liquid scintillation counting. In general terms: Loss of bound radioactivity is the signal in a displacement assay; it reports binding, not function.

For another data set, the target named is CYP3A4 (Homo sapiens, UniProt P08684). Nature of the data set: Inhibition of CYP3A4 (unknown origin) at 3 uM. In kind it is ADME.
Another data set concerns the target T3, Androgen receptor (Homo sapiens, UniProt P10275).
T3 sequence (P10275 whole entry): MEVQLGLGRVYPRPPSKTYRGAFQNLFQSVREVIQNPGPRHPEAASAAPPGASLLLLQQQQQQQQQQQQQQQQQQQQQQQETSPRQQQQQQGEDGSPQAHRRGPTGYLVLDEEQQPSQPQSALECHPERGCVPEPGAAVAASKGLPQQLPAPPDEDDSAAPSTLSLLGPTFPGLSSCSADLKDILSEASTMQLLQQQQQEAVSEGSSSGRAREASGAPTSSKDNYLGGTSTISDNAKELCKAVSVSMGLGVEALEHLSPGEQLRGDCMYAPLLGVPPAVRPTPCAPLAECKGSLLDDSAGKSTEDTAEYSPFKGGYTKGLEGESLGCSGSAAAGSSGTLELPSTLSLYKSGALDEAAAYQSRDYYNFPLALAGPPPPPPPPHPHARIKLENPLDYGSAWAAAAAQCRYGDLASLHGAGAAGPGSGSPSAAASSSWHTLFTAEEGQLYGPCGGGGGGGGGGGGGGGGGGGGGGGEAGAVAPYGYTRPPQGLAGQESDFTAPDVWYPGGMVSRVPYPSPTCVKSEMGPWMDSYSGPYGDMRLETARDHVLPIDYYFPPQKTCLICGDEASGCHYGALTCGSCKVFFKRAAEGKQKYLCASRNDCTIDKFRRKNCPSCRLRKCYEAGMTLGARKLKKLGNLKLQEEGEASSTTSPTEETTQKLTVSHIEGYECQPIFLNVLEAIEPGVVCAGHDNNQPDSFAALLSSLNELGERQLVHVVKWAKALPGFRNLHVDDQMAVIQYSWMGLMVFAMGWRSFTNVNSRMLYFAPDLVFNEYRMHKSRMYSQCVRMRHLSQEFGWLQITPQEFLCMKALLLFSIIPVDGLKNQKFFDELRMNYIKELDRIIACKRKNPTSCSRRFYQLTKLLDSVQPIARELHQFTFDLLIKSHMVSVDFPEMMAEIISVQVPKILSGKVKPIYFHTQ
Nature of the data set: Antagonist activity at human androgen receptor ligand binding domain expressed in human Huh7 cells after 16 hrs by luciferase reporter gene assay. In kind it is cell-based, Huh-7. Background: Reporter assays use an easily measured gene product as a stand-in for the process of interest.

Data set [5] deals with T1, Mineralocorticoid receptor. Nature of the data set: Displacement of [3H]aldosterone from GST-tagged human mineralocorticoid receptor ligand binding domain after 4 hrs by liquid scintillation counting.

Sequence of CYP3A4 (P08684 whole entry): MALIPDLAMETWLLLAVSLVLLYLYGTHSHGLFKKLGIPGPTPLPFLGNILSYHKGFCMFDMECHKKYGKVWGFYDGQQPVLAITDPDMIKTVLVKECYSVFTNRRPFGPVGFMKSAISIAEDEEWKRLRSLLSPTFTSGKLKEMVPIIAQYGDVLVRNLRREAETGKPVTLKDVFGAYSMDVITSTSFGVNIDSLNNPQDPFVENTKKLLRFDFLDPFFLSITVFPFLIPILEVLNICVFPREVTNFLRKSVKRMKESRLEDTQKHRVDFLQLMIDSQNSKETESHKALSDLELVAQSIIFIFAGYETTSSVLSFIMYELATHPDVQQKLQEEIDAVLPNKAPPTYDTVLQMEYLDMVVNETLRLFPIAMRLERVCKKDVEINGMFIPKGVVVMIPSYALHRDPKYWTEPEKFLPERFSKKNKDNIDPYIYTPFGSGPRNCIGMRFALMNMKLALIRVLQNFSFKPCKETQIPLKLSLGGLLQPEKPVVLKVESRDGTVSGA
Sequence of CYP2D6 (P10635 whole entry): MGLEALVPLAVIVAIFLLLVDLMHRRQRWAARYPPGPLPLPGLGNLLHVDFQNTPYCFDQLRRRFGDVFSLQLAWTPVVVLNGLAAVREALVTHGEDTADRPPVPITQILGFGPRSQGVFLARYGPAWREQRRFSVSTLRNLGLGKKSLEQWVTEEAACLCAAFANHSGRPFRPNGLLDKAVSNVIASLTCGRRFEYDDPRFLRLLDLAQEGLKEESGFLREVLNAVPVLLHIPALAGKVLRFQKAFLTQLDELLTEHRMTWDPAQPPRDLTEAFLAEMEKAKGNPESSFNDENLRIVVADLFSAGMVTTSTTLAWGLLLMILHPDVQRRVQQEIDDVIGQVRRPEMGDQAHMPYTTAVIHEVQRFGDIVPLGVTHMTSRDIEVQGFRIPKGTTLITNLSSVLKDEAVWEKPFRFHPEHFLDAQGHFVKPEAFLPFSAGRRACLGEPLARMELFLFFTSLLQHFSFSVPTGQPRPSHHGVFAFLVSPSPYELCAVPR

Turning to `Cc1cn(-c2ccc(CNS(=O)(=O)c3cc(F)ccc3F)cc2)c(C)n1`, the microsomal CLint in [1] stood at 27 µL/min/mg. Besides, the logD – broadly, the decadic logarithm of the distribution of all forms, ionised or not, between an organic phase and buffer at a given pH – in [2] came out at 2.3. The Papp – broadly, a coefficient for how fast a substance crosses the barrier – in data set [3] was determined as 15.4 ×10⁻⁶ cm/s. Besides, the “CLH(app)” value with Hepatocyte amounted to 9.6 µL/min. Besides, the IC50 (in general, the concentration at which inhibition is half-maximal) is 556 nM in data set [4], 2190 nM on Glucocorticoid receptor, more than 10000 nM on Androgen receptor and 191 nM in data set [5]. Moreover, the inhibition at 3 µM at CYP2D6 and against CYP3A4 was less than 5% throughout. Moreover, the Ki (in general, a measure of affinity in units of concentration, obtained from inhibition or displacement) in data set [5] was found to be 113 nM.
